Patent US20250263388A1, “NOVEL COMPOUND BASED ON VALEROLACTONE AND MEDICINE” (priority 2018, published 2025)

Assays:
ALS = settings: cited from earlier work; for efficacy in clinical trials: ALS therapeutic drug candidates
[1] = test system: differentiated NSC-34 cells; test: ODAP-EA assay (reducing effect on motor excitotoxicity); format: cell-based, mouse
Excerpt: ODAP-EA assay was invented by the present inventor as a test for measuring the reducing effect on motor exciotoxicity (Kusama-Eguchi K, et. al. Food Chem Toxicol., 49, 636-643 (2011)). In the ODAP-EA assay, differentiated NSC-34 cells were subjected to excitotoxicity in NSC-34 cells by adding ethacrynic acid (EA), which has a mitochondrial glutathione level-lowering effect, and L-β-ODAP, which is a neurotoxic amino acid. Then, the effect of reducing the excitotoxicity of the test substance is evaluated.
NSC34 cells were cultivated in a Rich medium in a […] until they became confluent, and then the Rich medium in the dish was removed. […] The replacement of the Poor medium once a day was repeated about 3 to 5 times to promote the differentiation of NSC-34 cells.
The NSC-34 cells differentiated as described above were suspended in Poor medium and seeded in a 96-well plate at a target concentration of 4×10^4 cells/well at 200 μL/well. […]
Then, 110 μL of the medium in the well plate was removed, 10 μL/well of AlamarBlue™ previously returned to room temperature was added, and the plate was placed in an incubator at 37° C. under 5% CO2 condition. After about 1 hour, the fluorescence intensity (excitation wavelength: 544 nm, fluorescence wavelength: 590 nm) was measured using a fluorescence plate reader. […]

[2] = test system: SOD1-G93A-introduced N2a cells; test: Dual-luciferase assay (SOD1-G93A gene introduced into N2a cells); settings: positive control resveratrol
NSC-34 cells = test: ROS assay; format: cell-based, mouse
Protocol: The ROS assay is a test in which the test substances are evaluated for their ability to eliminate the ROS produced by a cell under stress. The ROS assay was performed by culturing NSC-34 cells in a medium from which serum (FBS) had been removed, and measuring the increased ROS produced at that time using CM-H2DCFDA.
NSC-34 cells were suspended in phenol red free DMEM medium, and NSC-34 cells were seeded at a target concentration of 4×10^4 cells/well in a 96-well plate at 200 μL/well.
Then, the medium was completely removed from the 96-well plate, DMEM ([-] phenol red) was added at 200 μL/well, and then the test substance dissolved in DMSO (or solvent only) was added at 0.4 μL/well. […] And placed in the incubator for 1 hour. One hour later, the fluorescence intensity (excitation wavelength 485 nm, fluorescence wavelength 520 nm) was measured using a fluorescence microplate reader.
The test was performed 2 to 4 times in quadruplicate. As a positive control, 30 μg/mL (120 μM) trolox was used. From the measurement result obtained with the test substance, the relative intensity to trolox was calculated by the following formula (1).

[3] = test system: ALS model mice holding SOD1-G93A gene; test: Motor performance (Rota-rod test) in ALS model mice; format: in vivo, mouse
Protocol: (§1) ALS model mice holding SOD1-G93A gene were used for the experiment. The first generation mouse was generated by bleeding a 6-week-old SOD1-G93A transgenic male (B6SJL-Tg (SOD1-G93A) 1Gur/J, imported from The Jackson Laboratory, USA) with 8-week-old C57BL/6J female mice (designated as F1 as shown below), and placed in the same cage for 1 week for mating.
Backcrossing was performed using the first backcross SOD1-G93A gene-bearing male mouse (FuBk1) and C57BL/6J female mouse (F1) produced as described above, and the resulting mouse carrying the SOD1-G93A gene was backcrossed with C57BL/6J female mice, which was the second mouse (FuBk2) They were used in the preliminary test described below. […]
(§2) The test substance was evaluated based on two points: the survival days of mice and motor function. Regarding the number of days of survival, the number of days until the mouse was determined to be dead (including surrogate death) was evaluated. Motor function was evaluated by a motor test using the Rota-rod method.
In order to investigate the onset time of ALS-like symptoms in the test subject mouse, the motor function of the mouse was measured once a week by the Rota-rod method using a ROTA-ROD TREADMILL for MICE MK-600 (Muromachi). […] Those who fell twice in 300 seconds or less were regarded as mice showing the symptoms of motor inability, and the latency (seconds) until they fell was also measured. […]

[4] = test system: ALS model mice holding SOD1-G93A gene; test: Survival days (Kaplan-Meier) in ALS model mice; format: in vivo, mouse
Protocol: as §1
(§3) Backcrossing was performed using the first backcross SOD1-G93A gene-bearing male mouse (FuBk1) and C57BL/6J female mouse (F1) produced as described above, and the resulting mouse carrying the SOD1-G93A gene was backcrossed with C57BL/6J female mice, which was the second mouse (FuBk2) They were used in the preliminary test described below. A male mouse (FuBk2) carrying the SOD1-G93A gene was further crossed with an F1 female mouse to prepare a third backcrossed mouse (FuBk3) and a fourth backcrossed mouse (FuBk4), which will be described later as the final examination.
as §2
A mouse that lost its righting reflex and could not return to the correct posture within 20 seconds was determined to be a surrogate death.
The test results were analyzed by the Kaplan-Meier method, and the p-value and median were obtained by the Log-Rank test or the Wilcoxon test. The latency between control and YY-1 group after developing of the motor inability was analyzed by T-test for each measuring point.
Of the third backcrossed mouse (FuBk3) carrying the SOD1-G93A gene, a total of 51 male and female mice determined to carry the SOD1-G93A gene by genotyping, and were used as test animals.
The test drug was prepared at a concentration shown in Table 14 using a 1% DMSO+2% Tween 20 solution as a solvent. The test substance was orally administered to mice using a sterilized disposable sonde. According to Table 13 above, the test substance in an amount corresponding to the body weight was […] administered to the mouse.
A total of 52 determined female mice were used as test animals.
The test substance was administered to the mouse once a day from 105 days after birth using a sterilized disposable oral probe at 0.1 mL/10 g (body weight) (10 mg/kg).

[5] = test system: ALS model mice holding SOD1-G93A gene; test: Change in the body weight of ALS model mice, administration test 1; format: in vivo; settings: 1 mg/kg and 10 mg/kg, oral once a day from 60 days after birth
Protocol: as §1, §3
Subject animal: The second backcrossed mice (FuBk2) holding SOD1-G93A were determined by genotyping, and were used for the treatment experiment from 60 days after birth (pre-symptomatic period). A total of 16 animals were used as test animals (n=16).
The test substance dissolved in DMSO was prepared at a concentration shown in Table 12 using a 2.5% DMSO (final concentration) solution as a solvent. […]
The body weight was measured twice a week. […]

[6] = 5 mg/kg oral once a day from about 45 days after birth, FuBk3 mice, tendency, p=0.090
[7] = 10 mg/kg oral once a day from 105 days after birth, FuBk4 mice, p=0.029

Q: Which “efficacy in clinical trials” value (ALS) does the source give for `CC(=O)N[C@@H](CS)C(=O)O` [N-acetylcysteine] here?
A: Its value is “no efficacy”.

Q: For `C/C=C/C=C/[C@H]1OC(=O)CC[C@@H]1O` [YY-1, (5S,6R)-5-hydroxy-6-[(1E,3E)-penta-1,3-dien-1-yl] tetrahydro-2H-pyran-2-one], which “relative strength with respect to 4 mM NAC (highest)” value ([1]; 0.1 to 3.0 μg/mL (0.55 to 16.5 μM)) is on record?
A: The value was ≤ 20%.

Q: And the ODAP-EA toxicity-reducing effect ([1]; all concentrations of 0.1 to 100 μg/mL (0.55 to 550 μM))?
A: Its ODAP-EA toxicity-reducing effect is “strong ODAP-EA toxicity-reducing effect”.

Q: And the “luminescence intensity in excess of the positive control” value ([2]; 0.1 μg/mL (0.55 μM))?
A: Its value is “about 40%”.

Q: What about the “luminescence intensity in excess of the positive control” value ([2]; 1 μg/mL (5.5 μM)) of the same compound?
A: Its value is “about 40%”.

Q: What about the “ROS scavenging action relative to trolox” value (NSC-34 cells; relative to 30 μg/mL (120 μM) trolox, serum-free medium, test substance 10, 30 or 100 μg/mL) of the same compound?
A: Its value is “about 20%”.

Q: And the “ROS assay activity relative to 322-Ext at the same concentration” value (NSC-34 cells; same concentration as 322-Ext)?
A: Its value is “about 40%”.

Q: And the “prolongation of development of motor disability vs control, median” value ([3]; 5 mg/kg oral once a day from about 45 days after birth, FuBk3 mice, tendency, p=0.12)?
A: Its value is 7 days.

Q: What about the “delay effect in motor dysfunction” value ([3]; 10 mg/kg oral once a day from 105 days after birth, FuBk4 mice) of the same compound?
A: The value was “about 7 days”.

Q: And the “extension of survival days vs control, average value” [4, 6]?
A: Its value is “about 5 days”.

Q: What about the “extension of survival days vs control, median value” [4, 6] of the same compound?
A: The value was 8 days.

Q: What about the “prolongation of survival days vs control, mean value” [4, 7] of the same compound?
A: Its value is “about 6 days”.

Q: And the “prolongation of survival days vs control, median value” [4, 7]?
A: The value was 5 days.

Q: What about the “toxicity to the ALS model mouse (presumed from body weight)” value [5] of the same compound?
A: The value was “no or low toxicity”.

Q: And the body weight change ([5]; FuBk2 male mice)?
A: The body weight change was “no significant weight loss”.

Q: With `COC1=C(OC)C(=O)C(C/C=C(\C)CC/C=C(\C)CC/C=C(\C)CC/C=C(\C)CC/C=C(\C)CC/C=C(\C)CC/C=C(\C)CC/C=C(\C)CC/C=C(\C)CCC=C(C)C)=C(C)C1=O` [coenzyme Q10] as the compound, how does the “efficacy in clinical trials” value (ALS) read?
A: The value was “no efficacy”.

Q: Which “efficacy in clinical trials” value (ALS) does the source give for `N[C@@H](CCC(=O)N[C@@H](CS)C(=O)NCC(=O)O)C(=O)O` [glutathione] here?
A: The value was “no efficacy”.

Q: With `C/C1=C2/[N-][C@H]([C@H](CC(N)=O)[C@@]2(C)CCC(=O)NC[C@@H](C)OP(=O)([O-])O[C@H]2[C@@H](O)[C@@H](n3cnc4cc(C)c(C)cc43)O[C@@H]2CO)[C@]2(C)N=C(/C(C)=C3N=C(/C=C4N=C1[C@@H](CCC(N)=O)C\4(C)C)[C@@H](CCC(N)=O)[C@]\3(C)CC(N)=O)[C@@H](CCC(N)=O)[C@]2(C)CC(N)=O.[CH3-].[Co+3]` [methylcobalamin] as the compound, how does the “efficacy in clinical trials” value (ALS) read?
A: The value was “no efficacy”.

Q: Which “outcome of clinical trials (Phase 3)” value (ALS; Non-Patent Document 5) does the source give for “IGF-1: Insulin-like growth factor-1, protein expected to have an action of preventing motor nerve loss” here?
A: The value was “unsuccessful”.
